Assay results reported in patent US20140073778A9, “CONJUGATES COMPRISING HYDROXYALKYL STARCH AND A CYTOTOXIC AGENT AND PROCESS FOR THEIR PREPARATION” (priority 2010, published 2014).
Marks after values point to notes of the source that are not given here.

Key:
[1] = system: human colon carcinoma HT-29; experiment: Tumor growth inhibition (relative tumor volume, T/C) in s.c. HT-29 xenograft model; assay type: in vivo, human (xenograft in NMRI:nu/nu mice)
Procedure: The cells were obtained from ATCC and are cryo-preserved within the EPO tumor bank. They were thawed, expanded in vitro and transplanted as cell suspension subcutaneously (s.c.) in female NMRI:nu/nu mice. […] It was therefore selected for this study.
For experimental use 10^7 tumor cells/mouse from the in vitro passage were transplanted s.c. into the flank of each of 10 mice/group at day 0.
(§1) […] The application volume was 0.2 ml/20 g mouse body weight. The test compounds, the vehicle controls and the reference compounds were all given intravenously (i.v.).
(§2) Tumor growth inhibition was used as therapeutic parameter. Additionally, body weight change was determined as signs for toxicity (particularly, potential hematological or gastrointestinal side effects).
Tumor diameters were measured twice weekly with a caliper. Tumor volumes were calculated according to V=(length×(width)^2)/2. For calculation of the relative tumor volume (RTV) the tumor volumes at each measurement day were related to the day of first treatment. At each measurement day the median and mean tumor volumes per group and also the treated to control (T/C) values in percent were calculated.
Descriptive statistics were performed on the data of body weight and tumor volume. […] Statistical evaluation was performed with the U-test of Mann and Whitney with a significance level of p≦0.05, using the Windows program […] 6.
Solutions were prepared immediately before injection by solving the conjugates in saline solution by vortexing in combination with centrifugation until a clear solution of the necessary concentration of the drug was obtained.

[2] = Body weight change as sign of toxicity in HT-29 xenograft-bearing mice; assay type: in vivo, NMRI:nu/nu mice
Procedure: as §1, §2
Individual body weights of mice were determined twice weekly and mean body weight per group was related to the initial value in percent (body weight change, BWC).
On the day of necropsy mice were sacrificed by cervical dislocation and inspected for gross organ changes.
The loss of body weight is known to be an indicator of gastrointestinal and hepatotoxicity of the tested compound.

[3] = system: human lung carcinoma LXFL-529; experiment: Tumor growth inhibition (relative tumor volume) in LXFL-529 xenograft model; assay type: in vivo, human (xenograft in NMRI nu/nu mice)
From the text: (§3) Mouse strain: NMRI nu/nu, female Animals supplied by: Charles River, Germany Age of mice at implantation: 5-7 weeks
(§4) The tumor xenografts LXFL-529 and MAXF-401 (Fiebig H H, Berger D P, Dengler W A, Wallbrecher E, Winterhalter B R: Combined In Vitro/In Vivo Test Procedure with Human Tumor Xenografts for New Drug Development. Contrib. Oncol., Basel, Karger, 1992, Vol. 42, pp 321-351) used in this study were derived from surgical specimen from patients treated at the University Hospital in Freiburg, Germany, and directly implanted into nude mice. Prior to surgery, most of the patients had not received any chemotherapy.
(§5) Tumor fragments were obtained from xenografts in serial passage in nude mice. After removal from donor mice, tumors were cut into fragments (4-5 mm diameter) and placed in PBS until subcutaneous implantation. Recipient mice were anaesthetized by inhalation of isoflurane. A small incision was made in the back and one tumor fragment per animal was transplanted with tweezers. The mice were monitored daily.
(§6) At randomization, tumor-bearing animals were stratified according to tumor volume into treatment and vehicle (control) groups. Only animals carrying one tumor of appropriate size (approximately 50-250 mm^3) were considered for randomization. Mice were randomized when the required number of mice qualified for randomization. The day of randomization was designated as day 0, which was also the first day of dosing.
(§7) All test items were formulated in 0.9% NaCl solution and given as i.v. bolus injection.
(§8) Measurement of tumor volume and body weight as well as calculations of relative tumor volumes were carries out analgue to the procedure described in 2.3.

[4] = system: human mammary carcinoma (MAXF-401); experiment: Tumor growth inhibition (relative tumor volume) in MAXF-401 xenograft model; assay type: in vivo, human (xenograft in NMRI nu/nu mice)
From the text: as §3, §4, §5
as §6, with “The day of randomization was designated as day 0, which was also the first day of dosing.” left out

[5] = Body weight change / toxicity in MAXF-401 xenograft-bearing mice; assay type: in vivo, NMRI nu/nu mice; settings: Table 18, CA4P 50, 40 mg/kg/inj. d 0, 10, CCs1 60 d 0, CCs2 60, 40 d 0, 10
Procedure: All experiments were conducted according to the guidelines of the German Animal Welfare Act (Tierschutzgesetz). Animal health was examined prior to tumor implantation and randomization to ensure that only animals without any symptoms of disease were selected to enter testing procedures. During the experiments, animals were monitored daily regarding tumor burden, general condition, feed and water supply.
as §7, §8

CCc1c2c(nc3ccc(OC(=O)N4CCC(N5CCCCC5)CC4)cc13)-c1cc3c(c(=O)n1C2)COC(=O)[C@]3(O)CC [Irinotecan]
RTV T/C (%) Optimum (at day) ([1]; Table 14, optimum at day 54, Irinotecan 15 mg/kg/inj. d 9-13, conjugates 60 mg/kg/inj. d 9): 48.2%
RTV T/C (%) Optimum (at day) ([1]; Table 15, Irinotecan 15 mg/kg/inj. d 8-12, conjugates 60 mg/kg/inj. d 8, day of optimum printed below value (30; CSN10 34; CSN13 13)): 27.7* %
RTV T/C (%) Optimum (at day) ([1]; Table 16, 60 mg/kg/inj. d 7, day of optimum in parentheses (21-42)): 66.3%
Toxic death (day) ([2]; Table 14, number of toxic deaths of 8 mice, Irinotecan 15 mg/kg/inj. d 9-13, conjugates 60 mg/kg/inj. d 9, day of death in parentheses): 1
Toxic death (at day) ([2]; Table 17, number of toxic deaths per group (day), treatment d 8, Irinotecan 60, CSN21 30, CSN23 60, CSN22 and CIr1-3 80 mg/kg/inj.): 1 (20)

COc1cc([C@@H]2c3cc4c(cc3[C@@H](O[C@@H]3O[C@@H]5CO[C@@H](C)O[C@H]5[C@H](O)[C@H]3O)[C@H]3COC(=O)[C@H]23)OCO4)cc(OC)c1O [V-16 (Etoposid)]
Tumor volume cm^3/d 16 ([3]; Table 19, day 16, treatment d 0, 3, 7, Etoposid 20 mg/kg/inj., CEt1 20, 40, 50 mg/kg/inj.): 0.293 +/− 0.137 cm^3
RTV T/C (%) Optimum (at day) ([3]; Table 19, optimum at day 16, treatment d 0, 3, 7, Etoposid 20 mg/kg/inj., CEt1 20, 40, 50 mg/kg/inj.): 15.5 (16) %
RTV T/C (%) re-normalized on day 7 ([3]; Table 19, re-normalized on day 7, treatment d 0, 3, 7, Etoposid 20 mg/kg/inj., CEt1 20, 40, 50 mg/kg/inj.): 22.6%

COc1ccc(/C=C\c2cc(OC)c(OC)c(OC)c2)cc1OP(=O)([O-])[O-].[Na+].[Na+] [combretastatin A4 phosphate, Combretastatin A4 phosphate disodium salt]
inhibition of tumor growth ([4]; MAXF-401 xenografts in nude mice, i.v. bolus): only modest anti-tumor activity
RTV T/C (%) Optimum (at day) ([4]; Table 18, CA4P 50, 40 mg/kg/inj. d 0, 10, CCs1 60 d 0, CCs2 60, 40 d 0, 10, day of optimum in parentheses): 59.8 (13) %
BWC [%] (at day) ([5]; day of value in parentheses): −1.8 (7) %
Mortality (at day) ([5]; deaths of 4 mice (day)): 0

COc1cc([C@@H]2c3cc4c(cc3[C@@H](O[C@@H]3O[C@@H]5CO[C@@H](C)O[C@H]5[C@H](O)[C@H]3O)[C@H]3COC(=O)[C@H]23)OCO4)cc(OC)c1O [etoposide, Etoposide]
loss of tumor volume between d7 and d16 ([3]; LXFL-529 xenografts in nude mice, tumor shrinkage after day 7): 26%
tumors still shrinking or at least stabile ([3]; LXFL-529 xenografts, at the last day of the experiment): 2/5
